Laboratory results reported in patent publication US20080306126A1, “Peroxisome proliferator activated receptor treatment of hyperhomocysteinemia and its complications” (priority 2004, published 2008).

Assays:
Format in all cases: in vivo, Sprague Dawley rats
[1] = system: balloon catheter-injured carotid arteries; test: Balloon catheter injury of the carotid artery: development of intimal hyperplasia (I/M ratio); conditions: for I/M ratio of representative micrograph (single animal): 21 days after injury; for I/M (intimal/medial ratio), group mean: three weeks after catheter injury
Method: (§1) Ten-week-old female Sprague Dawley rats were obtained from Harlan Laboratories (Indianapolis, Ind.). After an acclimatization period of one week, they were fed a powdered control diet with or without methionine for one week. After one week on the normal or methionine diet, an aqueous preparation rosiglitazone (3.0 mg/kg/d) or vehicle was administered by gavage. The methionine diet was prepared with 10 g of L-methionine obtained from Sigma Chemical Company in St. Louis, Miss., added to 10 kg of powdered feed and thoroughly mixed. The rats were divided into four groups (n=7/group) and fed a) control diet; b) control diet with administration of rosiglitazone; c) methionine diet; and d) methionine diet with rosiglitazone.
Balloon catheter injury of to the carotid artery was induced as previously published (27). Briefly, a 2.0 mm PTCA obtained from Boston Scientific, Inc. in Quincy, Mass. was introduced through the femoral artery to the left carotid. The balloon was inflated to 4 atmospheres for 20 seconds and then deflated to 2 atmospheres and dragged down to the aorta. The animals were continued on their respective diets and rosiglitazone treatment was continued as indicated for three weeks after the surgery. The surgical procedures were conducted under anesthesia in a totally aseptic atmosphere. All rats had free access to the feed and water, and were maintained in a 12 hour day/light cycle.
The carotid arteries were separated and flushed with zinc buffered formalin. Each artery was cut from top into 4 equal segments and placed sequentially for embedding in paraffin. Sections no thicker then 6 um were cut and stained with hemotoxalin and eosin for microscopy. All four segments were read and the intimal/medial (I/M) ratio was calculated using Image-Pro software (NIH). The mean of the I/M ratios of the 4 sections reflected the I/M for one animal.

[2] = Serum homocysteine levels by high pressure liquid chromatography
Method: as §1
(§2) Before the beginning of the experiment, and at the time of sacrificing the animal a blood sample was obtained from each rat. At the end of the experiment, rats were sacrificed using a carbon dioxide chamber for harvesting tissues. Samples of blood and liver were collected and immediately processed. The serum and liver samples were stored frozen.
(§3) The Hcy levels were measured by high pressure liquid chromatography according to an established method (28,29). Cystathionine-β-synthase (CβS) was assayed in the liver samples, and the procedure followed was as previously published (26).

[3] = system: cystathionine-β-synthase (CβS); test: Cystathionine-β-synthase activity assayed in liver samples of treated rats; conditions: methionine diet with rosiglitazone, methionine diet alone 0.35+/−0.05
Method: as §1, §2, §3

CN(CCOc1ccc(CC2SC(=O)NC2=O)cc1)c1ccccn1 (stereo not drawn) [rosiglitazone]
I/M ratio of representative micrograph (single animal) ([1]; FIG. 1 micrograph C: control diet with rosiglitazone): 0.19 | I/M ratio of representative micrograph (single animal) ([1]; FIG. 1 micrograph D: methionine diet with rosiglitazone): 0.17 | I/M (intimal/medial ratio), group mean ([1]; control diet with rosiglitazone 3.0 mg/kg/d by gavage, control diet alone 0.18+/−0.05): 0.21+/−0.03 | I/M (intimal/medial ratio), group mean ([1]; methionine diet with rosiglitazone 3.0 mg/kg/d by gavage, methionine diet alone 0.82+/−0.21): 0.28+/−0.12 | I/M (intimal/medial ratio), group mean ([1]; methionine diet with rosiglitazone 3.0 mg/kg/d by gavage, methionine diet alone 0.82+/−0.21, listed as Rosiglitazone): 0.27+/−0.12 | serum homocysteine level ([2]; control diet with rosiglitazone, control diet alone 6.3+/−0.04 μM): 5.1 ± 0.6 µM | homocysteine level ([2]; methionine diet with rosiglitazone treatment (background summary)): 16.4 ± 1.7 µM | serum homocysteine concentration ([2]; methionine diet with rosiglitazone, methionine diet alone 28.9+/−3.2 μM): 16.4 ± 1.7 µM | CβS activity [3]: 0.57+/−0.1 μmoles/mg protein
